According to PMC4521635 (Clinical cancer research : an official journal of the …, 2011):
Entries after “also recorded” stand apart in the source; their conditions may differ. Like-named read-outs stand apart in the source and are kept apart here.

Legend:
clinical = assay type: in vivo, human
[1] = cited from earlier work
[2] = 4-day continuous infusion with cyclophosphamide and carboplatin; cited from earlier work
[3] = Expanded MTD cohort, TIME + HCT
[4] = TIME regimen with autologous HCT
[5] = dose level 1, topotecan 10 mg/m^2, TIME + HCT
[6] = dose level 2, topotecan 15 mg/m^2, TIME + HCT
[7] = dose level 3, topotecan 20 mg/m^2, TIME + HCT
[8] = dose level 4, topotecan 27 mg/m^2, TIME + HCT
[9] = dose level 5, topotecan 36 mg/m^2, TIME + HCT
[10] = dose level 6, topotecan 48 mg/m^2, TIME + HCT
[11] = dose level 7, topotecan 64 mg/m^2, TIME + HCT
[12] = dose level 8, topotecan 85 mg/m^2, TIME + HCT
[13] = median, dose level 7, daily dose 21.3 mg/m^2 for 3 days, day 8, phase I patients
[14] = with paclitaxel and carboplatin

CC[C@@]1(O)C(=O)OCc2c1cc1n(c2=O)Cc2cc3c(CN(C)C)c(O)ccc3nc2-1 [topotecan]
MTD of topotecan (daily dose) (3 days, in combination with ifosfamide, mesna, etoposide, followed by autologous HCT): 21.3 mg/m^2/d | Nonrelapse deaths, cause [3]: Arrhythmia (1) and bacterial sepsis (1) | Nonrelapse deaths, number of patients [3]: 2 (13%) | dose-limiting toxicity [4]: Mucositis; also recorded: gastrointestinal toxicity | recommended phase II dose [4]: 64 mg/m^2 | Cortical function, number of patients with grade 3 or 4 [5]: 0 | Enteritis, number of patients with grade 3 or 4 [5]: 0 | Hematuria, number of patients with grade 3 or 4 [5]: 0 | Mucositis (grade 4), number of patients [5]: 1 (25%) | Nonrelapse deaths, number of patients [5]: 0 | Number of days with grade 4 mucositis, median (range) [5]: 0 (0-1) days | Peripheral nerve function, number of patients with grade 3 or 4 [5]: 0 | Pulmonary clinical status, number of patients with grade 3 or 4 [5]: 1 (25%) | Reduction in ejection fraction, number of patients with grade 3 or 4 [5]: 0 | Cortical function, number of patients with grade 3 or 4 [6]: 1 (17%) | Enteritis, number of patients with grade 3 or 4 [6]: 1 (17%) | Hematuria, number of patients with grade 3 or 4 [6]: 1 (17%) | Mucositis (grade 4), number of patients [6]: 2 (33%) | Nonrelapse deaths, number of patients [6]: 0 | Number of days with grade 4 mucositis, median (range) [6]: 0 (0-10) days | Peripheral nerve function, number of patients with grade 3 or 4 [6]: 1 (17%) | Pulmonary clinical status, number of patients with grade 3 or 4 [6]: 1 (17%) | Reduction in ejection fraction, number of patients with grade 3 or 4 [6]: 0 | Cortical function, number of patients with grade 3 or 4 [7]: 0 | Enteritis, number of patients with grade 3 or 4 [7]: 3 (75%) | Hematuria, number of patients with grade 3 or 4 [7]: 1 (25%) | Mucositis (grade 4), number of patients [7]: 2 (50%) | Nonrelapse deaths, number of patients [7]: 0 | Number of days with grade 4 mucositis, median (range) [7]: 2.5 (0-6) days | Peripheral nerve function, number of patients with grade 3 or 4 [7]: 0 | Pulmonary clinical status, number of patients with grade 3 or 4 [7]: 0 | Reduction in ejection fraction, number of patients with grade 3 or 4 [7]: 0 | Cortical function, number of patients with grade 3 or 4 [8]: 1 (20%) | Enteritis, number of patients with grade 3 or 4 [8]: 3 (60%) | Hematuria, number of patients with grade 3 or 4 [8]: 0 | Mucositis (grade 4), number of patients [8]: 4 (80%) | Nonrelapse deaths, number of patients [8]: 0 | Number of days with grade 4 mucositis, median (range) [8]: 2 (0-7) days | Peripheral nerve function, number of patients with grade 3 or 4 [8]: 0 | Pulmonary clinical status, number of patients with grade 3 or 4 [8]: 1 (20%) | Reduction in ejection fraction, number of patients with grade 3 or 4 [8]: 1 (20%) | Cortical function, number of patients with grade 3 or 4 [9]: 1 (11 %) | Enteritis, number of patients with grade 3 or 4 [9]: 4 (44%) | Hematuria, number of patients with grade 3 or 4 [9]: 0 | Mucositis (grade 4), number of patients [9]: 5 (56%) | Nonrelapse deaths, number of patients [9]: 0 | Number of days with grade 4 mucositis, median (range) [9]: 1 (0-20) days | Peripheral nerve function, number of patients with grade 3 or 4 [9]: 0 | Pulmonary clinical status, number of patients with grade 3 or 4 [9]: 0 | Reduction in ejection fraction, number of patients with grade 3 or 4 [9]: 0 | Cortical function, number of patients with grade 3 or 4 [10]: 0 | Enteritis, number of patients with grade 3 or 4 [10]: 2 (40%) | Hematuria, number of patients with grade 3 or 4 [10]: 0 | Mucositis (grade 4), number of patients [10]: 5 (100%) | Nonrelapse deaths, number of patients [10]: 0 | Number of days with grade 4 mucositis, median (range) [10]: 5 (1-9) days | Peripheral nerve function, number of patients with grade 3 or 4 [10]: 0 | Pulmonary clinical status, number of patients with grade 3 or 4 [10]: 0 | Reduction in ejection fraction, number of patients with grade 3 or 4 [10]: 0 | Cortical function, number of patients with grade 3 or 4 [11]: 0 | Enteritis, number of patients with grade 3 or 4 [11]: 4 (57%) | Hematuria, number of patients with grade 3 or 4 [11]: 1 (14%) | Mucositis (grade 4), number of patients [11]: 7 (100%) | Nonrelapse deaths, cause [11]: Fungal infection | Nonrelapse deaths, number of patients [11]: 1 (14%) | Number of days with grade 4 mucositis, median (range) [11]: 6 (4-11) days | Peripheral nerve function, number of patients with grade 3 or 4 [11]: 1 (14%) | Pulmonary clinical status, number of patients with grade 3 or 4 [11]: 0 | Reduction in ejection fraction, number of patients with grade 3 or 4 [11]: 0 | Cortical function, number of patients with grade 3 or 4 [12]: 0 | Enteritis, number of patients with grade 3 or 4 [12]: 3 (60%) | Hematuria, number of patients with grade 3 or 4 [12]: 1 (20%) | Mucositis (grade 4), number of patients [12]: 4 (80%) | Nonrelapse deaths, cause [12]: Septic shock | Nonrelapse deaths, number of patients [12]: 1 (20%) | Number of days with grade 4 mucositis, median (range) [12]: 8 (0-12) days | Peripheral nerve function, number of patients with grade 3 or 4 [12]: 0 | Pulmonary clinical status, number of patients with grade 3 or 4 [12]: 0 | Reduction in ejection fraction, number of patients with grade 3 or 4 [12]: 1 (20%) | AUC, Lactone (clinical; human, in vivo, 3.3 mg/m2): 0.26 µmol·h/L | AUC, Total (clinical; human, in vivo, 3.3 mg/m2): 0.56 µmol·h/L | Cl, Lactone (clinical; human, in vivo, 3.3 mg/m2): 27.95 L/h/m^2 | Cl, Total (clinical; human, in vivo, 3.3 mg/m2): 12.97 L/h/m^2 | Cmax (clinical; human, in vivo, 3.3 mg/m2): 180 nM | Cmax, Total (clinical; human, in vivo, 3.3 mg/m2): 0.18 µmol/L | T1/2, Lactone (clinical; human, in vivo, 3.3 mg/m2): 2.6 h | T1/2, Total (clinical; human, in vivo, 3.3 mg/m2): 2.7 h | Vdss, Lactone (clinical; human, in vivo, 3.3 mg/m2): 56.6 L/m^2 | Vdss, Total (clinical; human, in vivo, 3.3 mg/m2): 49.2 L/m^2 | AUC (clinical; human, in vivo, 5 mg/m2): 0.27 µM·h | Cl, Lactone (clinical; human, in vivo, 5 mg/m2): 41.19 L/h/m^2 | Cl, Total (clinical; human, in vivo, 5 mg/m2): 15.44 L/h/m^2 | Cmax (clinical; human, in vivo, 5 mg/m2): 200 nM | T1/2, Total (clinical; human, in vivo, 5 mg/m2): 3.0 h | half-life (clinical; human, in vivo, 5 mg/m2): 162 min | AUC (clinical; human, in vivo, 6.8 mg/m2): 0.38 µM·h | AUC, Total (clinical; human, in vivo, 6.8 mg/m2): 0.86 µmol·h/L | Cl, Lactone (clinical; human, in vivo, 6.8 mg/m2): 39.59 L/h/m^2 | Cl, Total (clinical; human, in vivo, 6.8 mg/m2): 17.14 L/h/m^2 | Cmax (clinical; human, in vivo, 6.8 mg/m2): 230 nM | Cmax, Total (clinical; human, in vivo, 6.8 mg/m2): 0.33 µmol/L | T1/2, Total (clinical; human, in vivo, 6.8 mg/m2): 2.6 h | Vdss, Lactone (clinical; human, in vivo, 6.8 mg/m2): 113 L/m^2 | Vdss, Total (clinical; human, in vivo, 6.8 mg/m2): 57.5 L/m^2 | half-life (clinical; human, in vivo, 6.8 mg/m2): 204 min | AUC, Lactone (clinical; human, in vivo, 8.9 mg/m2): 0.70 µmol·h/L | AUC, Total (clinical; human, in vivo, 8.9 mg/m2): 1.63 µmol·h/L | Cl, Lactone (clinical; human, in vivo, 8.9 mg/m2): 28.1 L/h/m^2 | Cl, Total (clinical; human, in vivo, 8.9 mg/m2): 12.05 L/h/m^2 | Cmax (clinical; human, in vivo, 8.9 mg/m2): 480 nM | Cmax, Total (clinical; human, in vivo, 8.9 mg/m2): 0.52 µmol/L | T1/2, Lactone (clinical; human, in vivo, 8.9 mg/m2): 3.1 h | Vdss, Lactone (clinical; human, in vivo, 8.9 mg/m2): 91.6 L/m^2 | Vdss, Total (clinical; human, in vivo, 8.9 mg/m2): 53.7 L/m^2 | AUC, Lactone (clinical; human, in vivo, 12 mg/m2): 0.88 µmol·h/L | AUC, Total (clinical; human, in vivo, 12 mg/m2): 1.86 µmol·h/L | Cl, Lactone (clinical; human, in vivo, 12 mg/m2): 30.11 L/h/m^2 | Cl, Total (clinical; human, in vivo, 12 mg/m2): 16.43 L/h/m^2 | Cmax (clinical; human, in vivo, 12 mg/m2): 610 nM | Cmax, Total (clinical; human, in vivo, 12 mg/m2): 0.65 µmol/L | T1/2, Lactone (clinical; human, in vivo, 12 mg/m2): 3.2 h | T1/2, Total (clinical; human, in vivo, 12 mg/m2): 2.9 h | Vdss, Lactone (clinical; human, in vivo, 12 mg/m2): 94.4 L/m^2 | Vdss, Total (clinical; human, in vivo, 12 mg/m2): 53.3 L/m^2 | AUC, Lactone (clinical; human, in vivo, 15.7 mg/m2): 1.48 µmol·h/L | AUC, Total (clinical; human, in vivo, 15.7 mg/m2): 2.77 µmol·h/L | Cl, Lactone (clinical; human, in vivo, 15.7 mg/m2): 23.53 L/h/m^2 | Cl, Total (clinical; human, in vivo, 15.7 mg/m2): 12.62 L/h/m^2 | Cmax (clinical; human, in vivo, 15.7 mg/m2): 800 nM | Cmax, Total (clinical; human, in vivo, 15.7 mg/m2): 0.87 µmol/L | T1/2, Lactone (clinical; human, in vivo, 15.7 mg/m2): 3.3 h | T1/2, Total (clinical; human, in vivo, 15.7 mg/m2): 3.1 h | Vdss, Lactone (clinical; human, in vivo, 15.7 mg/m2): 76.6 L/m^2 | Vdss, Total (clinical; human, in vivo, 15.7 mg/m2): 48.1 L/m^2 | T1/2, Lactone (clinical; human, in vivo, 21.3 mg/m2): 2.7 h | T1/2, Total (clinical; human, in vivo, 21.3 mg/m2): 2.6 h | AUC, Lactone (clinical; human, in vivo, 28.4 mg/m2): 2.40 µmol·h/L | AUC, Total (clinical; human, in vivo, 28.4 mg/m2): 5.73 µmol·h/L | Cl, Lactone (clinical; human, in vivo, 28.4 mg/m2): 25.77 L/h/m^2 | Cl, Total (clinical; human, in vivo, 28.4 mg/m2): 10.78 L/h/m^2 | Cmax (clinical; human, in vivo, 28.4 mg/m2): 1670 nM | Cmax, Total (clinical; human, in vivo, 28.4 mg/m2): 2.12 µmol/L | T1/2, Total (clinical; human, in vivo, 28.4 mg/m2): 2.4 h | Vdss, Lactone (clinical; human, in vivo, 28.4 mg/m2): 81.5 L/m^2 | Vdss, Total (clinical; human, in vivo, 28.4 mg/m2): 41.1 L/m^2 | Cl, Lactone (clinical; [13]): 29.10 L/h/m^2 | Cl, Total (clinical; [13]): 13.43 L/h/m^2 | Vdss, Lactone (clinical; [13]): 95.8 L/m^2 | Vdss, Total (clinical; [13]): 63.9 L/m^2 | dose-limiting toxicity ([1]; seen at 6 mg/m^2/d, with cyclophosphamide and carboplatin): severe stomatitis requiring parenteral nutrition and narcotic administration | MTD ([1]; single agent, 72-hour continuous infusion, largest dose 11 mg/m^2): not reached | dose-limiting toxicity ([1]; single-agent topotecan with hematopoietic cell support): diarrhea | dose-limiting toxicities [1, 14]: hemorrhagic stomatitis and prolonged hematopoietic recovery | topotecan dose at which 4 cycles could be given [1, 14]: 10 mg/m^2 | median topotecan clearance [2]: 184 mL/min/m^2
